Experimental data from ChEMBL document CHEMBL1201862, “PubChem BioAssay data set” (2004).
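Interpolation was linear, between the two tested concentrations surrounding the appropriate level; five concentrations were tested over 48 hours in 96-well plates. GI50 marks 50% less growth.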 Calls of active or inactive are those of the source. Rule as the data show it: active = GI50 up to about 1.1 µM and inactive = higher.

What was measured:
Assay in all cases: DTP human tumour cell line panel, 48 h
A498 = tested on: A498
CCRF-CEM = tested on: CCRF-CEM
OVCAR-4 = tested on: OVCAR-4
HT-29 = tested on: HT-29
UACC-257 = tested on: UACC-257
EKVX = tested on: EKVX
TK-10 = tested on: TK-10
ACHN = tested on: ACHN
OVCAR-8 = tested on: OVCAR-8
U-251 = tested on: U-251
COLO 205 = tested on: COLO 205
NCI-H460 = tested on: NCI-H460
UACC-62 = tested on: UACC-62
HCT-116 = tested on: HCT-116
SNB-19 = tested on: SNB-19
SF-268 = tested on: SF-268
K562 = tested on: K562
SF-295 = tested on: SF-295

Structure (SMILES)	GI50 (A498)	GI50 (CCRF-CEM)	GI50 (OVCAR-4)	GI50 (HT-29)	GI50 (UACC-257)	GI50 (EKVX)	GI50 (TK-10)	GI50 (ACHN)	GI50 (OVCAR-8)	GI50 (U-251)	GI50 (COLO 205)	GI50 (NCI-H460)	GI50 (UACC-62)	GI50 (HCT-116)	GI50 (SNB-19)	GI50 (SF-268)	GI50 (K562)	GI50 (SF-295)
COc1ccc2oc(C(=O)O)c3c2c1CCC3CCC(=O)O (stereo not drawn)	> 100 µM (inactive)	> 100 µM (inactive)	> 100 µM (inactive)	> 100 µM (inactive)	> 100 µM (inactive)	> 100 µM (inactive)	> 100 µM (inactive)	> 100 µM (inactive)	> 100 µM (inactive)	> 100 µM (inactive)	> 100 µM (inactive)	> 100 µM (inactive)	> 100 µM (inactive)	> 100 µM (inactive)	> 100 µM (inactive)	> 100 µM (inactive)	> 100 µM (inactive)	> 100 µM (inactive)
O=C1CNc2cc(N3CCOCC3)ccc2N1	60.7 µM (inactive)	> 100 µM (inactive)	> 100 µM (inactive)	> 100 µM (inactive)	> 100 µM (inactive)	2.91 µM (inactive)	> 100 µM (inactive)	> 100 µM (inactive)	> 100 µM (inactive)	> 100 µM (inactive)	> 100 µM (inactive)	> 100 µM (inactive)	64.9 µM (inactive)	> 100 µM (inactive)	> 100 µM (inactive)	> 100 µM (inactive)	> 100 µM (inactive)	> 100 µM (inactive)
Cc1cccc(C(C)C)c1NC(=O)CC1C(=O)Nc2ccccc2S1(=O)=O (stereo not drawn)	11.7 µM (inactive)	7.24 µM (inactive)	12.2 µM (inactive)	12.6 µM (inactive)	23.6 µM (inactive)	16 µM (inactive)	29 µM (inactive)	22.9 µM (inactive)	14.4 µM (inactive)	24.2 µM (inactive)	25.2 µM (inactive)	12.8 µM (inactive)	11.8 µM (inactive)	15.7 µM (inactive)	29.2 µM (inactive)	12.8 µM (inactive)	2.22 µM (inactive)	18.2 µM (inactive)
COc1ccccc1NC(=O)C(=O)C(c1cnc2ccc([N+](=O)[O-])cc2n1)[N+](=O)[O-] (stereo not drawn)	> 100 µM (inactive)	26 µM (inactive)	> 100 µM (inactive)	> 100 µM (inactive)	> 100 µM (inactive)	> 100 µM (inactive)	> 100 µM (inactive)	87.3 µM (inactive)	> 100 µM (inactive)	> 100 µM (inactive)	38.3 µM (inactive)	> 100 µM (inactive)	53 µM (inactive)	> 100 µM (inactive)	> 100 µM (inactive)	> 100 µM (inactive)	31.5 µM (inactive)	> 100 µM (inactive)
COC(=O)C1=C(O)C(O)=C(C(=O)OC)C1	> 100 µM (inactive)	> 100 µM (inactive)	> 100 µM (inactive)	> 100 µM (inactive)	> 100 µM (inactive)	> 100 µM (inactive)	> 100 µM (inactive)	> 100 µM (inactive)	> 100 µM (inactive)	> 100 µM (inactive)	> 100 µM (inactive)	> 100 µM (inactive)	0.612 µM (active)	> 100 µM (inactive)	> 100 µM (inactive)	> 100 µM (inactive)	> 100 µM (inactive)	> 100 µM (inactive)
CCOC(=O)C1Nc2ccccc2[C@H]2OCC[C@@H]12 (stereo partly drawn)	> 100 µM (inactive)	> 100 µM (inactive)	> 100 µM (inactive)	> 100 µM (inactive)	> 100 µM (inactive)	> 100 µM (inactive)	> 100 µM (inactive)	> 100 µM (inactive)	> 100 µM (inactive)	> 100 µM (inactive)	> 100 µM (inactive)	> 100 µM (inactive)	> 100 µM (inactive)	> 100 µM (inactive)	> 100 µM (inactive)	> 100 µM (inactive)	> 100 µM (inactive)	> 100 µM (inactive)
